Laboratory results as given in patent US6329137A (priority 2000, dated 2001).
Where two headings read alike, the source gives them in different places.

Tests used:
CD45 = type: cell-based
recombinant PTP1B = conditions: oxidizing its catalytic site cysteine; cited from earlier work
PTP1B-FL = PTP1B-FL (Homo sapiens, UniProt P18031); test: cell-based
[1] = tested on: PTPs (PTP1B-FL, CD45-cat and CD45-FL); type: cell-based
[2] = tested on: background phosphatases in mock-infected sf9 cells; type: cell-based, fall armyworm Spodoptera; conditions: for effect on background phosphatases: infected sf9 cells, 10 mM pNPP
CD45-cat = type: cell-based; conditions: infected sf9 cells, 10 mM pNPP
PTP = conditions: cited from earlier work

Sequence of PTP1B-FL (P18031 whole entry): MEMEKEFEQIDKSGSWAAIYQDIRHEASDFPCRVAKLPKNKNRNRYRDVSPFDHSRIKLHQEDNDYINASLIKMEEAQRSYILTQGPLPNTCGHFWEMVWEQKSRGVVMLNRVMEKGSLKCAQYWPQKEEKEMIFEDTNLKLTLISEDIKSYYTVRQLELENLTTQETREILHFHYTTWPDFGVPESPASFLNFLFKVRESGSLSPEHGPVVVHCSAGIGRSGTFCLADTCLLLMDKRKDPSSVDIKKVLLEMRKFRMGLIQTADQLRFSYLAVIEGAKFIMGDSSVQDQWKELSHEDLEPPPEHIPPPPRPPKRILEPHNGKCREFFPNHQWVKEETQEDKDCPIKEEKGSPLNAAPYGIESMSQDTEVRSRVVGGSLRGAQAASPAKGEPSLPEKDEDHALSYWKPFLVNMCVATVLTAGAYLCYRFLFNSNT

## OO [hydrogen peroxide]
CD45; read-out: IC50 range
  IC50: 10 to 15 µM
Recombinant PTP1B
  inactivation of recombinant PTP1B in vitro: inactivate recombinant PTP1B in vitro
PTP1B-FL
  IC50: 10 to 15 µM
[1]; intact sf9 cells, 10 mM pNPP
  potency and selectivity in words: limited potency and selectivity
[1]; read-out: IC50 values in the range of
  IC50: 7 to 16 µM

## C[C@@H]1O[C@@H](O[C@H]2C[C@@H](O)[C@]3(CO)[C@H]4[C@H](O)C[C@]5(C)[C@@H](C6=CC(=O)OC6)CC[C@]5(O)[C@@H]4CC[C@]3(O)C2)[C@H](O)[C@H](O)[C@H]1O [ouabain]
[2]
  inhibition of background infected cells: no inhibition up to 1 mM
[2]; ouabain at 1 mM
  effect on background phosphatases: Neither ouabain at 1 mM or okadaic acid at 6.7 μM had any effect
CD45
  inhibition of CD45 expressing cells: no inhibition up to 1 mM
CD45-cat; ouabain at 1 mM
  effect on CD45-cat phosphatase: Neither ouabain at 1 mM or okadaic acid at 6.7 μM had any effect

## C=C1[C@@H](O)[C@@H]2O[C@]3(CC[C@H](/C=C/[C@@H](C)[C@@H]4CC(C)=C[C@@]5(O[C@H](C[C@@](C)(O)C(=O)O)CC[C@H]5O)O4)O3)CC[C@H]2O[C@@H]1[C@@H](O)C[C@H](C)[C@H]1O[C@@]2(CCCCO2)CC[C@H]1C [okadaic acid]
[2]; okadaic acid at 6.7 μM
  effect on background phosphatases: Neither ouabain at 1 mM or okadaic acid at 6.7 μM had any effect
CD45-cat; okadaic acid at 6.7 μM
  effect on CD45-cat phosphatase: Neither ouabain at 1 mM or okadaic acid at 6.7 μM had any effect
[1]
  effect on pNPP hydrolysis: had no effect

## [Na+].[Na+].[Na+].[O]=[V]([O-])([O-])[O-] [vanadate, sodium orthovanadate]
PTP
  mode of binding at active site: competitively and reversibly bound at the active site
[2]
  IC50: 1600 nM
